Source: US20250099407A1, “2-AMINO BENZOPHENONE DERIVATIVES FOR TARGETED FERROPTOSIS INDUCTION IN CANCER THERAPY” (INDIAN INSTITUTE OF TECHNOLOGY KANPUR, priority 2023, published 2025)
Read-outs that look alike come from different tables or passages of the source.

What was measured:
Assay type in all cases: cell-based
[1] = test system: U87MG; assay: Cell viability, CellTiter-Glo assay, U87MG; conditions: Homo sapiens, U-87 MG
Procedure: (§1) The viability of screened cancer cells was recorded using a luminescence-based CellTiter-Glo® assay for the ATP quantification. The screening concentration of the molecule ranged from 100/10 μM to 45/4.5 nM with an 8-point-3-fold dilution series in DMEM media (>0.1% DMSO as control). Each experiment was conducted in more than two biological replicates with three technical replicates. The error bar is a representation of standard deviation among the technical replicates.
as §1, with “IITK3002” for “the molecule”, “10” for “100/10”, “4.5” for “45/4.5”
(§2) a. […] In parallel, we have also synthesized the bromoacetamide (IITK3002) version of the lead molecules which is slightly more reactive with thiol nucleophiles when compared to chlorooacetamide warheads as depicted in FIG. 13. […] In addition, we also evaluated the molecules' antiproliferative potency against a panel of twelve different cancer phenotypes. […]

[2] = test system: cancer cells; assay: Antiproliferative potency against cancer cells / panel of cancer cell lines
Procedure: as §1
as §1, with “IITK3002” for “the molecule”, “10” for “100/10”, “4.5” for “45/4.5”
(§3) a. […] In parallel, we have also synthesized the bromoacetamide (IITK3002) version of the lead molecules which is slightly more reactive with thiol nucleophiles when compared to chlorooacetamide warheads as depicted in FIG. 13. […] In addition, we also evaluated the molecules' antiproliferative potency against a panel of twelve different cancer phenotypes. The set of cancer cell lines included liver, breast, colon, myeloma, bone, blood, skin, brain and prostate lineages (FIG. 2, 3, Table 1).

[3] = test system: A549; assay: Cell viability, A549; conditions: Homo sapiens
[4] = test system: Jurkat J6; assay: Cell viability, CellTiter-Glo assay, Jurkat J6; conditions: Homo sapiens
Procedure: as §1
as §1, with “IITK3002” for “the molecule”, “10” for “100/10”, “4.5” for “45/4.5”
as §2

[5] = test system: PC3; assay: Cell viability, CellTiter-Glo assay, PC3
Procedure: as §1
as §1, with “IITK3002” for “the molecule”, “10” for “100/10”, “4.5” for “45/4.5”
as §3

[6] = test system: Huh-7 cells; assay: Combination cell viability experiments with thiols, ferroptosis modulators and cell death inhibitors in Huh-7 cells; conditions: for reduction in potency by N-acetylcysteine (NAC) and GSH: 500 μM NAC or glutathione in combination; for effect of erastin addition on antiproliferative activity: Erastin 0.5 μM, relatively non-toxic concentration; for effect of apoptosis (QVD-OPh) and necrosis (Necrostatin-1) inhibitors on antiproliferative activity: QVD-OPh and Necrostatin-1 10 μM; for cell death mechanism from combination experiments: combination with GSH, NAC, BSO, Fer-1, deferoxamine, RSL3, FIN56, Erastin, QVD-OPh, necrostatin-1, Huh-7 and 4T1
Procedure: FIG. 14 depicts a combination experiment indicates the involvement of thiol modulation by IITK3001/IITK3002 on the viability of Huh-7 and 4T1 cells, in accordance with an embodiment of the present invention. The viability of screened cancer cells was recorded using a luminescence-based CellTiter-Glo® assay for the ATP quantification. The screening concentration of (a) IITK3001 and (b) IITK3002 ranged from 10 uM to 4.5 nM with an 8-point-3-fold dilution series in DMEM medium (>0.1% DMSO as control). For combination experiments, 500 μM of NAC or glutathione and 25 μM of BSO were used. Each experiment was conducted in more than two biological replicates with three technical replicates. The error bar is a representation of standard deviation among the technical replicates.
(§4) FIG. 16 depicts ferroptosis induction as a cell death mechanism is established for IITK3001 using combination experiments with ferroptosis inducers and inhibitors, in accordance with an embodiment of the present invention. The screening concentration of (a) IITK3001 and (b) IITK3002 ranged from 10 μM to 4.5 nM with an 8-point-3-fold dilution series in DMEM medium (>0.1% DMSO as control). For combination experiments, Ferrostain-1 (10 μM),Deferoxamine (3 μM), RSL3 (10 nM), FIN56 (30 nM), glutamine (0.5 mM), glutamic acid (0.5 mM), Erastin (0.5 μM) were used. Each experiment was conducted in more than two biological replicates with three technical replicates. The error bar is a representation of standard deviation among the technical replicates.
as §4, with “18” for “16”, “IITK3002” for “IITK3001”, “of” for “of (a) IITK3001 and (b)”, “μM), Deferoxamine” for “μM),Deferoxamine”
FIG. 20 depicts combining apoptosis and necroptosis inhibitors ruled out the possibility of respective cell death mechanisms upon treatment with IITK3001 or IITK3002 in Huh-7 and 4T1 cells, in accordance with an embodiment of the present invention. The screening concentration of IITK3001/IITK3002 ranged from 10 μM to 4.5 nM with an 8-point-3-fold dilution series in DMEM medium (>0.1% DMSO as control). For combination experiments, QVD-OPh and Necrsotatin-1 (10 μM) were used. Each experiment was conducted in more than two biological replicates with three technical replicates. The error bar is a representation of standard deviation among the technical replicates.
FIG. 22 depicts ferroptosis induction was established for IITK3003 using combination experiments in Huh-7 cells, in accordance with an embodiment of the present invention. The screening concentration of IITK3002 ranged from 10 uM to 4.5 nM with an 8-point-3-fold dilution series in DMEM medium (>0.1% DMSO as control). For combination experiments, Ferrostain-1 ([…]), Deferoxamine (3 μM), RSL3 (10 nM), FIN56 (30 nM), glutamine (0.5 mM), glutamic acid (0.5 mM), Erastin (0.5 μM) were used. Each experiment was conducted in more than two biological replicates with three technical replicates. The error bar is a representation of standard deviation among the technical replicates.
FIG. 24 depicts ferroptosis induction was established for IITK3004 using combination experiments in Huh-7 cells, in accordance with an embodiment of the present invention. The screening concentration of the molecules (a) IITK3001 and (b) IITK3002 ranged from 10 μM to 4.5 nM with a 8-point-3-fold dilution series. […]

[7] = cell line not stated, read-out: EC50, inhibition of cancer cell proliferation
[8] = range over twelve different cancer phenotypes, read-out: EC50 concentration range across panel of twelve cancer cell lines
[9] = Homo sapiens, PC-3, PC3, cell viability

Row | EC50 [1] [nM] | EC50 [2, 7] [nM] | EC50 [2, 8] [nM] | EC50 [3] [nM] | EC50 [4] [nM] | EC50 [5, 9] [nM] | EC50 ([5]; PC3, cell viability) [nM] | Compound | reduction in potency by N-acetylcysteine (NAC) and GSH [6] [fold] | effect of erastin addition on antiproliferative activity [6] | effect of apoptosis (QVD-OPh) and necrosis (Necrostatin-1) inhibitors on antiproliferative activity [6] | cell death mechanism from combination experiments [6]
1 | 80 | 3 | 20 to 132 | 30 | 37 | 193 | 190 | CN(C(=O)CBr)c1ccccc1C(=O)c1ccccc1 [IITK3002, N-(2-benzoylphenyl)-2-bromo-N-methylacetamide] | > 500 | no effect | no apparent deviation | ferroptosis
2 | 402 | 70 | 132 to 490 | 610 | 222 | 348 | 350 | CN(C(=O)CCl)c1ccccc1C(=O)c1ccccc1 [IITK3001, N-(2-benzoylphenyl)-2-chloro-N-methylacetamide] | > 1000 | no effect | no apparent deviation | ferroptosis
3 |  |  |  | 700 |  | 1110 |  | C#CCN(C(=O)CCl)c1ccccc1C(=O)c1ccccc1 [IITK3003, N-(2-benzoylphenyl)-2-chloro-N-(prop-2-yn-1-yl)acetamide] |  |  |  | exceptionally selective ferroptosis inducers
